One compound from ChEMBL document CHEMBL1250502, “An alignment independent 3D QSAR study of the antiproliferative activity of 1,2,4,5-tetraoxanes” (Eur J Med Chem, 2010) can be followed below.

Assay [1] can be described thus: Cytotoxicity against human Fem-X cells. It counts as functional, cell-based. As to conditions: Homo sapiens, Fem-X; read-out: pIC50 (converted).
For assay [2], the system named is HeLa. Briefly: Cytotoxicity against human HeLa cells. It counts as functional, cell-based. The settings on record: Homo sapiens, HeLa; read-out: pIC50 (converted).

Consider `CC(=O)O[C@H]1C[C@H]2[C@@H](CC[C@@H]3C[C@]4(CC[C@@]32C)OO[C@@]2(CC[C@@]3(C)[C@H](CC[C@@H]5[C@@H]3C[C@H](OC(C)=O)[C@]3(C)[C@@H]([C@H](C)CCC(=O)O)CC[C@@H]53)C2)OO4)[C@@H]2CC[C@H]([C@H](C)CCC(=O)O)[C@@]12C`, for which the IC50 in assay [1] was 4.17 µM; in assay [2], 5.25 µM.
